The values that follow come from patent publication US20100267725A1, “Compounds, Compositions and Methods Comprising 4N-Substituted Triazole Derivatives” (Institute for OneWorld Health, priority 2009, published 2010).

T1 sequence (P13569 whole entry): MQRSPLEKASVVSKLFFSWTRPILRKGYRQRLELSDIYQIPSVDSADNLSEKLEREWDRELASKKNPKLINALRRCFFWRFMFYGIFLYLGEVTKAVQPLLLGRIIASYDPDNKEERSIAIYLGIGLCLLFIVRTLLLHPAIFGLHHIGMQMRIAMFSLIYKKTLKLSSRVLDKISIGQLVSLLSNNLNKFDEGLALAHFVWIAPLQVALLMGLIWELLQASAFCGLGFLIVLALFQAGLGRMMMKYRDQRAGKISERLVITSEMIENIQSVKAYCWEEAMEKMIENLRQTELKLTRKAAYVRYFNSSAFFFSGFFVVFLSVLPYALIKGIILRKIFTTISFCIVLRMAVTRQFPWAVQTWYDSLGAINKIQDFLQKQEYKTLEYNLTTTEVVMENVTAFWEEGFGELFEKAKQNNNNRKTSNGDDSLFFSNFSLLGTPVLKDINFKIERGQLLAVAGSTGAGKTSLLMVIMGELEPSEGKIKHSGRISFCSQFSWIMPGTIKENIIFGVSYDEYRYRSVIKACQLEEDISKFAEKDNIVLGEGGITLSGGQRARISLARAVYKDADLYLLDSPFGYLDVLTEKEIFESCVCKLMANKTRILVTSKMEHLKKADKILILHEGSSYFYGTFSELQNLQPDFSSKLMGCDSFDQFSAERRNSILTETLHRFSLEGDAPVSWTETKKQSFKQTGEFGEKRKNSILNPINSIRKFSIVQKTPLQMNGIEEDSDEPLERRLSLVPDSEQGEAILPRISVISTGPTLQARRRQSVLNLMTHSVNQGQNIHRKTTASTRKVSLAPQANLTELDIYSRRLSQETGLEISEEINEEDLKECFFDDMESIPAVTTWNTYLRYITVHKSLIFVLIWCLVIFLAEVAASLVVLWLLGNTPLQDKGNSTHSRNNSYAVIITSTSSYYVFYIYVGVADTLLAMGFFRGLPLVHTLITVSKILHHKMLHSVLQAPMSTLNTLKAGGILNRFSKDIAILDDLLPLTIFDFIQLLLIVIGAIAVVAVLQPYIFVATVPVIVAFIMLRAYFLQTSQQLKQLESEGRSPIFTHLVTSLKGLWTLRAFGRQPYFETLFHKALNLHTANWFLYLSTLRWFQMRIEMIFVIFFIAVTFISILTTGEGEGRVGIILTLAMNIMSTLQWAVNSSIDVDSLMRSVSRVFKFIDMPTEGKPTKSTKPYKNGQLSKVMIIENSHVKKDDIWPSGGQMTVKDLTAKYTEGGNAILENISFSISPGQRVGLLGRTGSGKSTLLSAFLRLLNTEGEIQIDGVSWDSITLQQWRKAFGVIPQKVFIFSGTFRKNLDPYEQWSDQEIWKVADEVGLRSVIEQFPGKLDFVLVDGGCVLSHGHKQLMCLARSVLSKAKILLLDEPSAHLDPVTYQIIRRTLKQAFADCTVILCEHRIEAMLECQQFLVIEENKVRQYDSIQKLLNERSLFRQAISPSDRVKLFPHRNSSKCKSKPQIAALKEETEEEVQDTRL

The assay concerns the target T1, CFTR channel (Homo sapiens, UniProt P13569).
T1 construct: host or cells: Human colonic T84 cells
As to the kind of experiment: T84 assay (FLIPR membrane potential dye, forskolin/IBMX-stimulated CFTR channel activity). Format: cell-based. As to conditions: Human colonic T84 cells; CFTR stimulated with 10 μM forskolin + 100 μM IBMX. The protocol: (§1) For example, Human colonic T84 cells can be acquired from the European Collection of Cell Cultures (ECACC) and grown in standard culture conditions as described by the supplier. On the day before assay 25,000 T84 cells per well are plated into standard black walled, clear bottom 384-well assay plates in standard growth medium consisting of DMEM:F12 with 10% FBS and incubated overnight. On the day of the assay the plates are washed using a standard assay buffer (HBSS with 10 mM Hepes) and incubated for 15 minutes in serum free cell culture medium before the addition of a commercially available membrane potential sensitive fluorescent dye (FLIPR Red membrane potential dye, Molecular Devices Corporation). T84 cells are incubated with the FLIPR Red membrane potential dye for 45 minutes in the presence and absence of test compound before being transferred to a commercially available fluorescence imaging plate reader (FLIPR384, Molecular Devices Corporation). Fluorescence levels are monitored continuously every second for 150 seconds; after an initial 10 second baseline, CFTR channel activity is stimulated through the addition of 10 μM forskolin in the presence of 100 μM of the phosphodiesterase inhibitor iso-butyl-methylxanthine (IBMX). Addition of the forskolin leads to the activation of intracellular adenylyl cylase 1, elevating cAMP levels and results in the phosphorylation and opening of CFTR anion channels. CFTR channel opening causes chloride ion efflux and subsequent depolarization of the cells, which is measured by an increase in fluorescence. CFTR inhibitor compounds prevent cell depolarization and the associated increase in fluorescence.
as §1, with “Human colonic” for “For example, Human colonic”, “T84 cells are acquired from” for “T84 cells can be acquired from”, “(ECACC) and are grown in” for “(ECACC) and grown in”
Broadly, the IC50 is the concentration that inhibits the measured activity by half. As to `CN(C)c1cccc(Cn2c(C(=O)NCc3ccc(Oc4ccccc4)cc3)nnc2-c2cc(Cl)c(O)c(Cl)c2)c1` [Compound 2, 5-(3,5-dichloro-4-hydroxyphenyl)-4-(3-(dimethylamino)benzyl)-N-(4-phenoxybenzyl)-4H-1,2,4-triazole-3-carboxamide], the IC50 is 6.69 µM.

Regarding `O=C(NCc1ccc(Oc2ccccc2)cc1)c1nnc(-c2cc(Cl)c(O)c(Cl)c2)n1Cc1ccccn1` [Compound 4, 5-(3,5-dichloro-4-hydroxyphenyl)-N-(4-phenoxybenzyl)-4-(pyridin-2-ylmethyl)-4H-1,2,4-triazole-3-carboxamide], the IC50 was 12.9 µM.

Take `COc1ccc(-n2c(C(=O)NCc3ccc(Oc4ccccc4)cc3)nnc2-c2cc(Cl)c(O)c(Cl)c2)cn1` [Compound 5, 5-(3,5-dichloro-4-hydroxyphenyl)-4-(6-methoxypyridin-3-yl)-N-(4-phenoxybenzyl)-4H-1,2,4-triazole-3-carboxamide]: the IC50 turned out to be 7.74 µM.

As for `O=C(NCc1ccc(Oc2ccccc2)cc1)c1nnc(-c2cc(Cl)c(O)c(Cl)c2)n1Cc1cccnc1` [Compound 3, 5-(3,5-Dichloro-4-hydroxyphenyl)-N-(4-phenoxybenzyl)-4-(pyridin-3-ylmethyl)-4H-1,2,4-triazole-3-carboxamide], the IC50 came out at 7.18 µM.

Turning to `O=C(NCc1ccc(Oc2ccccc2)cc1)c1nnc(-c2cc(Cl)c(O)c(Cl)c2)n1Cc1ccccc1` [Compound 1, 4-benzyl-5-(3,5-dichloro-4-hydroxyphenyl)-N-(4-phenoxybenzyl)-4H-1,2,4-triazole-3-carboxamide], the IC50 was determined as 7.14 µM.

As for `O=C(NCc1ccc(Oc2ccccc2)cc1)c1nnc(-c2cc(Cl)c(O)c(Cl)c2)n1Cc1ccc(CN2CCOCC2)cc1` [Compound 6, 5-(3,5-dichloro-4-hydroxyphenyl)-4-(4-(morpholinomethyl)benzyl)-N-(4-phenoxybenzyl)-4H-1,2,4-triazole-3-carboxamide], the IC50 was found to be 12.8 µM.
